Test results published in PMC12010006, “Subnanomolar MAS-related G protein-coupled receptor-X2/B2 antagonists with efficacy in human mast cells and disease models” (Signal Transduction and Targeted Therapy, 2025).

Tests used:
mouse tracheal rings = assay: Isometric force measurements of mouse tracheal rings on wire-myograph; details: 100 µM, 10 min pre-treatment, C48/80 30 µg/mL
Description: The MRGPRX2/MRGPRB2 agonist C48/80 was previously reported to induce tracheal contractions in WT mice, a response that was absent in mice with a frameshift mutation in Mrgprb2.[53] We investigated whether this effect could be blocked by PSB-172656, the potent MRGPRX2/MRGPRB2 antagonist. Therefore, the force of tracheal contractions induced by C48/80 (30 µg/mL) in mouse tracheal rings was measured using a wire myograph, confirming the compound’s ability to […] tracheal contractions (Fig. 7c, d).
Isometric force measurements were performed as described previously.[68] In detail, tracheas of C57BL/6 mice were isolated and cut into rings in cold low-calcium physiological saline solution (PSS), containing 118 mM NaCl, 5 mM KCl, 1.2 mM MgCl2, 1.5 mM NaH2PO4, 0.16 mM CaCl2, 10 mM glucose and 24 mM Hepes (pH 7.4). Rings were mounted on a wire-myograph (Multi Myograph 620 M, Danish Myo Technology, Aarhus, Denmark) and pre-stretched to 5 mN in PSS, containing 118 mM NaCl, 5 mM KCl, 1.2 mM MgCl2, 1.5 mM NaH2PO4, 1.6 mM CaCl2, 10 mM glucose, and 24 mM Hepes (pH 7.4). After equilibration for 20 min, maximal constriction was induced by methacholine (MCh, 10 μM, A2251, Sigma-Aldrich, Germany). […] Force amplitudes were always analyzed at the strongest contraction of tracheal rings. […] Statistical significance was determined by an unpaired Student’s t-test, *P < 0.05.

MRGPRX3 = target: T1, MRGPRX3 (Homo sapiens, UniProt Q96LB0); assay: β-arrestin assay, CHO cells expressing MRGPRX3 (subtype selectivity); assay type: cell-based; details: 10 µM, versus PSB-20294
T1 construct: inferred from the enzyme-complementation principle of the assay; expressed in transfected cells; host or cells: CHO-K1 beta-arrestin-2 (EA) cells
T1 sequence (Q96LB0 whole entry): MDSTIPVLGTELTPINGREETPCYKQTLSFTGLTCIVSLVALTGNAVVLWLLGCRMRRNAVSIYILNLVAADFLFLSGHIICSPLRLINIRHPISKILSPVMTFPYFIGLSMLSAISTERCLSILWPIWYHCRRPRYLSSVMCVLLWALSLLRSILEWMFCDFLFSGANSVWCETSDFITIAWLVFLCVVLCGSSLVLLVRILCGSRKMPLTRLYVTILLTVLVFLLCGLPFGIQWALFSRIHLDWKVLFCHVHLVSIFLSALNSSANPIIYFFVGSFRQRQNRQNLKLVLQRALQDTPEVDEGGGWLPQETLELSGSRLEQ
Description: Fig. 1 Characterization of MRGPRX2 inhibitor 1. a Chemical structure and molecular weight (MW) of 1. b Concentration-response curve of 1 determined in β-arrestin recruitment assays. CHO cells that recombinantly express MRGPRX2 were employed versus the agonist CST-14 (at its EC80 value of 1.0 µM). […] Data are means ± SEM of 3 biological replicates, performed in duplicates. c MRGPRX subtype selectivity of 1 (10 µM) determined in β-arrestin assays using CHO cells that recombinantly express the respective MRGPRX subtype. MRGPRX1 was activated by BAM-22P (8.5 µM),[19] MRGPRX2 was activated by CST-14 (1 µM), MRGPRX3 was activated by PSB-20294 (1 µM), and MRGPRX4 by PSB-18061 (2.6 µM).[44] […] The effect of each MRGPRX agonist was assessed in the absence and in the presence of 1; results were normalized to the maximal agonist effect. […] Statistical significance was determined by one-way ANOVA (Tukey’s multiple comparisons) test (ns P > 0.05 and ****P < 0.0001) TEXT PRINTED IN THE PICTURE: (a) 1 Hit compound: MW: 241.29 g/mol
Fig. 3 Biological characterization of PSB-172656. a Selectivity of PSB-172656 (100 nM) for MRGPRX2 over MRGPRX1, MRGPRX3, and MRGPRX4 measured in β-arrestin assays utilizing β-arrestin-CHO cells with recombinant expression of the respective receptor. […] Statistical significance was determined by one-way ANOVA (Tukey’s multiple comparison) test (ns P > 0.05). […]

Row | Compound | effect on C48/80-induced tracheal contractions (mouse tracheal rings; listed as PSB-172565) | effect on C48/80-induced tracheal contractions (mouse tracheal rings; listed as PSB-172656) | inhibition of MRGPRX3 activation (MRGPRX3)
1 | CCc1c(C(C)C)[nH]c2nc3cc(F)c(F)cc3n2c1=O [Compound 24, 3-ethyl-7,8-difluoro-2-isopropylbenzo[4,5]imidazo [1,2-a] pyrimidin-4(1H)-one] | potently blocks tracheal contractions | effectively blocked the contractions | not able to block
2 | CCCc1c(C)[nH]c2nc3ccccc3n2c1=O [Compound 1, 2-methyl-3-propylbenzo[4,5]imidazo[1,2-a]pyrimidin-4(1H)-one] | – | – | no inhibition
